Measured values taken from US20240316047A1, “INHIBITORS OF RNA HELICASE DHX9 AND USES THEREOF” (ACCENT THERAPEUTICS, INC., priority 2022, published 2024).
pIC50: −log10 of the molar value.

Target: Human recombinant DHX9 protein (Homo sapiens (Human), UniProt Q08211)
Assay: DHX9 ATPase assay (ADP-Glo)
Assay type: biochemical
Details: for pIC50: read-out: DHX9 Biochemical Inflection Point

Sequence of Human recombinant DHX9 protein (Q08211 whole entry): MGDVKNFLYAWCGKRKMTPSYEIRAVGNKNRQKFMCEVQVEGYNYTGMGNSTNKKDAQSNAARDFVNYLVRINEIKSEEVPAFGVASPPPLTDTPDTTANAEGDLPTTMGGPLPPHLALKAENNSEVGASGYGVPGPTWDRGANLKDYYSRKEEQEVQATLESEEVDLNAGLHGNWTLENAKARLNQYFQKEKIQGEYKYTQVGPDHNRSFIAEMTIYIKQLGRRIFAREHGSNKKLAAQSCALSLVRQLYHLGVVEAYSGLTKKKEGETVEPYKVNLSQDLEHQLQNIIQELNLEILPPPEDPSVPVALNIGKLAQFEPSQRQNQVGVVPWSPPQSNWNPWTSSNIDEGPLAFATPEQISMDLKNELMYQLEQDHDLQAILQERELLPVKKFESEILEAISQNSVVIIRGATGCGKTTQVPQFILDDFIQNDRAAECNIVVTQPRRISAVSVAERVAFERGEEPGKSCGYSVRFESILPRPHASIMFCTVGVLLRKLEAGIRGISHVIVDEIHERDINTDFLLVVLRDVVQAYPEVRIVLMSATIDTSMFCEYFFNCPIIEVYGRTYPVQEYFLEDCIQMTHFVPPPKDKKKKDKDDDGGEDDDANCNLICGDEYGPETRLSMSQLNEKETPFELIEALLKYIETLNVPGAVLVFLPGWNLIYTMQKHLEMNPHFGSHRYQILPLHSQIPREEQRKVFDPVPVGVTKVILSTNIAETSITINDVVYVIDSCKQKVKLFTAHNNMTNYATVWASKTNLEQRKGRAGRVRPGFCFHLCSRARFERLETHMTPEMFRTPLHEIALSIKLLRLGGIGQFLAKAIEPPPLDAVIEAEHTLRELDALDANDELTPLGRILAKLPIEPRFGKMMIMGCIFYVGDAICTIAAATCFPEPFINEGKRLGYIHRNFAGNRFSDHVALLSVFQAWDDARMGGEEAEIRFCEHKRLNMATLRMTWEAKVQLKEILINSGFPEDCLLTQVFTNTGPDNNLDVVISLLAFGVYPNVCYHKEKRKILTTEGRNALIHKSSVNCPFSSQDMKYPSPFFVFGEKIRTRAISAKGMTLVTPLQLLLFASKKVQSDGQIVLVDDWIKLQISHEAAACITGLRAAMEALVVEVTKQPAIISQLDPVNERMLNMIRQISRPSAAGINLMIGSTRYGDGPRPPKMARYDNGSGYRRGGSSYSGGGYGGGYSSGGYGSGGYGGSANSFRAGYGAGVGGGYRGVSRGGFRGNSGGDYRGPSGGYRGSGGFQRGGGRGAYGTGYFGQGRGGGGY

DHX9 Biochemical Max Inhibition | pIC50 | Structure (SMILES)
40% | 6.09 | CS(=O)(=O)Nc1cc(Cl)cc(NC(=O)c2ccc3nccn3c2)c1 [Example 134]
72.6% | 8.26 | CS(=O)(=O)Nc1cc(Cl)cc(NC(=O)c2cnn(-c3ncccc3OCc3cccc(F)c3)c2)c1 [Example 65]
66.3 | 7.48 | Cc1cc(C(=O)Nc2cc(Cl)cc(NS(C)(=O)=O)c2)cn1-c1ccc(OC(C)(C)C)cn1 [Example 663]
64.4% | 7.88 | CN1CCC(c2ccc(-n3cc(C(=O)Nc4cc(Cl)cc(NS(C)(=O)=O)c4)cn3)nc2)CC1=O (stereo not drawn) [Example 266]
67.1 | 7.29 | Cc1sc(C(=O)Nc2cc(Cl)cc(NS(C)(=O)=O)c2)cc1N1CCCC1=O [Example 434]
71.4% | 8.19 | Cn1cc(C(=O)Nc2cc(Cl)cc(NS(C)(=O)=O)c2)cc1-c1ccc(N2CCOCC2)cn1 [Example 273]
58.7 | 7.69 | CC(C)Oc1cnc(-c2csc(C(=O)Nc3cc(Cl)cc(NS(C)(=O)=O)c3)c2)nc1 [Example 457]
56.7% | 6.48 | CS(=O)(=O)Nc1cc(Cl)cc(NC(=O)c2coc(-c3ccccc3)c2)c1 [Example 125]
56.4 | 7.17 | Cn1cc(C(=O)Nc2cc(Cl)cc(NS(C)(=O)=O)c2)cc1-c1ncc(N2CCCC(F)(F)C2)cc1F [Example 483]
63.8% | 6.94 | CS(=O)(=O)Nc1cc(Cl)cc(NC(=O)c2cc(Br)cs2)c1 [Example 241]
67.9 | 7.79 | Cn1cc(C(=O)Nc2cc(Cl)cc(NS(C)(=O)=O)c2)cc1-c1ccc(N2CC(C)(F)C2)cn1 [Example 688]
52.8% | 6.42 | CS(=O)(=O)Nc1cc(Cl)cc(NC(=O)c2cnn(-c3cnc(N4CCOCC4)cn3)c2)c1 [Example 388]
77.8 | 7.15 | CS(=O)(=O)Nc1cc(Cl)cc(NC(=O)c2cc(-c3ncccc3F)n(CC(F)(F)F)c2)c1 [Example 564]
80.6 | 8.12 | COCc1ccc(-c2cc(C(=O)Nc3cc(Cl)cc(NS(C)(=O)=O)c3)cn2C)nc1 [Example 574]
80.4 | 7.71 | Cc1nc(COc2cc(F)cnc2-c2cc(C(=O)Nc3cc(Cl)cc(NS(C)(=O)=O)c3)cn2C)cs1 [Example 724]
90 | 7.26 | Cc1cc(C(=O)Nc2cc(Cl)cc(NS(C)(=O)=O)c2)cn1-c1ccc(C#N)cn1 [Example 425]
64.1% | 5.32 | CS(=O)(=O)Nc1cc(F)cc(NC(=O)c2cc(Br)[nH]n2)c1 [Example 4]
74.9 | 8.05 | COCc1ccc(-n2cc(C(=O)Nc3cc(Cl)cc(NS(C)(=O)=O)c3)cc2C)nc1 [Example 447]
80.5% | 8.33 | CS(=O)(=O)Nc1cc(Cl)cc(NC(=O)c2cc(-c3ncccc3OCc3cccnc3)n(CC(F)(F)F)c2)c1 [Example 185]
65.4% | 7.70 | CC(C)C(=O)N1CCN(c2ccc(-n3cc(C(=O)Nc4cc(Cl)cc(NS(C)(=O)=O)c4)cn3)nc2)CC1 [Example 149, N-(3-chloro-5-(methylsulfonamido)phenyl)-1-(5-(4-isobutyrylpiperazin-1-yl)pyridin-2-yl)-1H-pyrazole-4-carboxamide]
55.8% | 7.35 | CS(=O)(=O)Nc1cc(Br)cc(NC(=O)c2cccc(-n3cccn3)c2)c1 [Example 118]
67.8% | 6.84 | CCn1cc(C(=O)Nc2cc(Cl)cc(NS(C)(=O)=O)c2)cc1-c1ccccc1 [Example 79, N-(3-chloro-5-(methylsulfonamido)phenyl)-1-ethyl-5-phenyl-1H-pyrrole-3-carboxamide]
72.1% | 7.47 | CCS(=O)(=O)Nc1cc(Cl)cc(NC(=O)c2cc(-c3ncc(F)cc3F)c(C)s2)c1 [Example 347]
72.5% | 8.37 | Cn1cc(C(=O)Nc2cc(Cl)cc(NS(C)(=O)=O)c2)cc1-c1ccc(N2CC3(COC3)C2)cn1 [Example 277]
83.7 | 8.09 | Cc1sc(C(=O)Nc2cc(Cl)cc(NS(C)(=O)=O)c2)cc1-c1ncc(N2CC(F)(F)C2)cn1 [Example 510]
69.5 | 6.47 | CCS(=O)(=O)Nc1cc(Cl)cc(NC(=O)c2cc(-c3ncc(F)cn3)c(C3CC3)s2)c1 [Example 449]

DHX9 Biochemical Max Inhibition | pIC50 | Structure (SMILES)
76.3% | 6.49 | Cc1cc(C(=O)Nc2cc(Cl)cc(NS(C)(=O)=O)c2)cn1-c1ncccc1OCc1nccs1 [Example 280]
70.8 | 7.86 | Cn1cc(C(=O)Nc2cc(Cl)cc(NS(C)(=O)=O)c2)cc1-c1ncc(N2CCCC2)cn1 [Example 520]
73 | 7.16 | Cc1cc(C(=O)Nc2cc(Cl)cc(NS(C)(=O)=O)c2)cn1-c1ncc(N2CC(F)(F)C2)cc1OCC(F)(F)F [Example 708]
81.3 | 6.75 | Cn1cc(C(=O)Nc2cc(Cl)cc(NS(C)(=O)=O)c2)cc1-c1ccc(C2CCN(CC(F)(F)F)CC2)cn1 [Example 619]
68.1 | 6.92 | CS(=O)(=O)Nc1cc(Cl)cc(NC(=O)c2cc3c(s2)CCC3Oc2cccnc2)c1 (stereo not drawn) [Example 687]
68.1 | 6.70 | CN(C)C(=O)c1cccc(OCc2cccc(F)c2)c1-n1cc(C(=O)Nc2cc(Cl)cc(NS(C)(=O)=O)c2)cn1 [Example 717]
55.9 | 6.89 | Cc1sc(C(=O)Nc2cc(Cl)cc(NS(C)(=O)=O)c2)nc1-c1ccc(F)cn1 [Example 716]
41.8% | 4.87 | CCc1nc2ccc(C(=O)Nc3cc(Cl)cc(NS(C)(=O)=O)c3)cn2c1N(C)C [Example 133]
70.9 | 7.64 | Cc1sc(C(=O)Nc2cc(Cl)cc(NS(C)(=O)=O)c2)cc1-c1ncc(C#N)cn1 [Example 585]
69.1 | 7.66 | Cn1cc(C(=O)Nc2cc(Cl)cc(NS(C)(=O)=O)c2)cc1-c1ncc(N2CC(F)(F)C2)cn1 [Example 597]
66.9 | 6.94 | CS(=O)(=O)Nc1cc(Cl)cc(NC(=O)c2cc(-c3ccc(F)cn3)n(S(C)(=O)=O)c2)c1 [Example 701]
69.9% | 7.47 | CCS(=O)(=O)Nc1cc(Cl)cc(NC(=O)c2cc(-c3ncc(F)cc3Cl)c(C)s2)c1 [Example 355]
73.1 | 7.27 | CSc1cnc(-n2cc(C(=O)Nc3cc(Cl)cc(NS(C)(=O)=O)c3)cc2C)nc1 [Example 658]
63.3 | 7.18 | Cc1sc(C(=O)Nc2cc(Cl)cc(NS(C)(=O)=O)c2)cc1-c1ncc(N2CCCC(F)(F)C2)cc1F [Example 482]
65.9% | 7.40 | CCS(=O)(=O)Nc1cc(F)cc(NC(=O)c2cc(-c3ccccn3)cs2)c1 [Example 113]
71% | 6.45 | Cc1sc(C(=O)Nc2cc(Cl)cc(NS(C)(=O)=O)c2)cc1-c1c(F)cccc1OCc1ccccc1 [Example 240]
67.7% | 8.10 | CS(=O)(=O)Nc1cc(Cl)cc(NC(=O)c2cc(-c3ncccc3Oc3cccnc3)cs2)c1 [Example 239]
58.2% | 6.55 | CS(=O)(=O)Nc1cc(Cl)cc(NC(=O)c2cc3c(C(F)(F)F)cccc3s2)c1 [Example 323]
82.9 | 8.30 | COc1cnc(-c2cc(C(=O)Nc3cc(Cl)cc(NS(C)(=O)=O)c3)cn2C)c(F)c1 [Example 454]
68.7% | 7.62 | CS(=O)(=O)Nc1cc(Cl)cc(NC(=O)c2cnn(-c3ncccc3OCc3ccccc3)c2)c1 [Example 68]
64.3 | 7.60 | CS(=O)(=O)Nc1cc(Cl)cc(NC(=O)c2cc(-c3ccc(N4CC(F)(F)C4)cn3)cs2)c1 [Example 487]
76.6 | 7.23 | Cc1cc(C(=O)Nc2cc(Cl)cc(NS(C)(=O)=O)c2)cn1-c1ccc(C(F)(F)F)cn1 [Example 443]
64.9% | 7.84 | CN(C)C(=O)N1CCN(c2ccc(-n3cc(C(=O)Nc4cc(Cl)cc(NS(C)(=O)=O)c4)cn3)nc2)CC1 [Example 89]
37.9% | 6.70 | CS(=O)(=O)Nc1cc(Br)cc(NC(=O)c2cnn(-c3cccc(C#N)c3)c2)c1 [Example 52]
72.6 | 7.93 | CCc1cncc(COc2cccnc2-c2cc(C(=O)Nc3cc(Cl)cc(NS(C)(=O)=O)c3)cn2C)c1 [Example 730]

Structure (SMILES) | DHX9 Biochemical Max Inhibition | pIC50
CS(=O)(=O)Nc1cc(Cl)cc(NC(=O)c2cc(C(=O)Nc3ccccc3)cs2)c1 [Example 166, N2-(3-chloro-5-(methylsulfonamido)phenyl)-N4-phenylthiophene-2,4-dicarboxamide] | 64% | 7.55
Cc1cccnc1-c1cc(C(=O)Nc2cc(Br)cc(NS(C)(=O)=O)c2)cn1C [Example 84, N-(3-bromo-5-(methylsulfonamido)phenyl)-1-methyl-5-(3-methylpyridin-2-yl)-1H-pyrrole-3-carboxamide] | 66.7% | 8.00
CC(=O)N1CCN(c2ccc(-n3cc(C(=O)Nc4cc(Br)cc(NS(C)(=O)=O)c4)cn3)nc2)CC1 [Example 86, 1-(5-(4-acetylpiperazin-1-yl)pyridin-2-yl)-N-(3-bromo-5-(methylsulfonamido)phenyl)-1H-pyrazole-4-carboxamide] | 51.5% | 7.74
